Values after ≈ are worked out from the molar mass of the structure shown. Read-outs that look alike come from different tables or passages of the source. Numbered stars: 1 amine (or outer) side, 2 acyl side, 3 side chain; on linkers, the order of the positions; unused ones are H or OH. Square brackets hold non-standard residues; d marks the D form. Peptide text beside a SMILES is read from it. X1 = O=C(CN(CC(c1ccccc1)c1ccccc1)[*:1])[*:2]; Gly(N-(CH2)6NH2) = NCCCCCCNCC(=O)O; Gly(N(CH2)3NH2) = NCCCNCC(=O)O; NhArg = N=C(N)NCCCCNCC(=O)O; N(iPr)Gly = CC(C)NCC(=O)O; Nphe = O=C(O)CNCc1ccccc1; Nleu = CC(C)CNCC(=O)O; Nlys = NCCCCNCC(=O)O
Assays:
Assay type in all cases: cell-based
[1] = tested on: Bacillus subtilis ATCC 6633
Protocol: (§1) Antimicrobial activity was tested against the gram-negative strain Escherichia coli ATCC 25922, and […] strains Staphylococcus aureus ATCC 25923, and Bacillus subtilis ATCC 6633, according to the guidelines given in the document […]-A7 of the CLSI (Clinical and Laboratory Standards Institute; Clinical and Laboratory Standards Institute. Methods for Dilution Antimicrobial Susceptibility Tests for Bacteria That Grow Aerobically-Seventh Edition: Approved Standard CLSI document […]-A7. CLSI, Wayne, USA, 2006). This reference is incorporated herein in its entirety. Hemolytic activity was tested against fresh human erythrocytes.

[2] = tested on: Escherichia coli ATCC 25922
Protocol: as §1

[3] = tested on: Staphylococcus aureus ATCC 25923
Protocol: as §1

fresh human erythrocytes = assay: Hemolytic activity
Protocol: Typically, toxicity is evaluated by hemolytic concentration50 (HC50), which measures the concentration of antimicrobial agents at which 50% of the erythrocytes in the culture are lysed. Significant hemolysis, as evaluated by HC50, was detectable only for peptide gramicidin S (40 μg/mL). […] In order to test hemolytic activity of peptoid oligomers further, more stringent parameters were used. Instead of HC50, hemolytic concentration10 (HC10) was used to evaluate hemolytic activity of peptoids used in this study. HC10 represents the concentration of antimicrobial agents where 10% of erythrocytes are lysed. HC10 values were detectable for only four peptoid oligomers. […] Antimicrobial activity was tested against the gram-negative strain Escherichia coli ATCC 25922, and […] strains Staphylococcus aureus ATCC 25923, and Bacillus subtilis ATCC 6633, according to the guidelines given in the document […]-A7 of the CLSI (Clinical and Laboratory Standards Institute; Clinical and Laboratory Standards Institute. Methods for Dilution Antimicrobial Susceptibility Tests for Bacteria That Grow Aerobically-Seventh Edition: Approved Standard CLSI document […]-A7. CLSI, Wayne, USA, 2006). This reference is incorporated herein in its entirety. Hemolytic activity was tested against fresh human erythrocytes.

| Compound | MIC B. sub ([1]; ATCC 6633) | MIC E. coli ([2]; ATCC 25922) | MIC S. aureus ([3]; ATCC 25923) | HC10 (concentration where 10% hemolysis is observed) (fresh human erythrocytes; red cells of human) | HC50 (concentration where 50% hemolysis is observed) (fresh human erythrocytes; red cells of human) | MIC B. sub ([1]; B. subtilis ATCC 6633) | MIC E. coli ([2]; E. coli ATCC 25922) | MIC S. aureus ([3]; S. aureus ATCC 25923) | HC10 (concentration where 10% hemolysis is observed) (fresh human erythrocytes; fresh human erythrocytes) | HC50 (concentration where 50% hemolysis is observed) (fresh human erythrocytes; fresh human erythrocytes) |
| --- | --- | --- | --- | --- | --- | --- | --- | --- | --- | --- |
| CC(=O)N(CCCCNC(=N)N)CC(=O)N(CC(=O)N(CCCCNC(=N)N)CC(=O)N(CC(=O)N(CCCCNC(=N)N)CC(=O)N(CC(N)=O)Cc1ccccc1)Cc1ccccc1)Cc1ccccc1 [Compound 2, Ac(NgbNpm)3] (Ac-[NhArg][Nphe][NhArg][Nphe][NhArg][Nphe]-NH2) | 62.5 µg/mL (≈ 61.8 µM) | 250 µg/mL (≈ 247 µM) | 125 µg/mL (≈ 124 µM) | >250 µg/mL | >250 µg/mL |  |  |  |  |  |
| CC(=O)N(CCCCCCN)CC(=O)N(CC(=O)N(CCCCCCN)CC(=O)N(CC(=O)N(CCCCCCN)CC(=O)N(CC(N)=O)Cc1ccccc1)Cc1ccccc1)Cc1ccccc1 [Compound 3, Ac(NahNpm)3] (Ac-[Gly(N-(CH2)6NH2)][Nphe][Gly(N-(CH2)6NH2)][Nphe][Gly(N-(CH2)6NH2)][Nphe]-NH2) | >500 µg/mL | >500 µg/mL | >500 µg/mL | >250 µg/mL | >250 µg/mL |  |  |  |  |  |
| CC(=O)N(CCCN)CC(=O)N(CC(=O)N(CCCN)CC(=O)N(CC(=O)N(CCCN)CC(=O)N(CC(N)=O)Cc1ccc2ccccc2c1)Cc1ccc2ccccc2c1)Cc1ccc2ccccc2c1 [Compound 5, Ac(NapNnm)3] | 2 µg/mL (≈ 2.01 µM) | 62.5 µg/mL (≈ 62.9 µM) | 125 µg/mL (≈ 126 µM) | >250 µg/mL | >250 µg/mL |  |  |  |  |  |
| CC(=O)N(CCCN)CC(=O)N(CC(=O)N(CCCN)CC(=O)N(CC(=O)N(CCCN)CC(=O)N(CCCN)CC(N)=O)Cc1ccccc1)Cc1ccccc1 [Compound 6, Ac(NapNpm)2Nap2] (Ac-[Gly(N(CH2)3NH2)][Nphe][Gly(N(CH2)3NH2)][Nphe][Gly(N(CH2)3NH2)][Gly(N(CH2)3NH2)]-NH2) | >500 µg/mL | >500 µg/mL | >500 µg/mL | >250 µg/mL | >250 µg/mL |  |  |  |  |  |
| CC(=O)N(CCCN)CC(=O)N(CC(=O)N(CCCN)CC(=O)N(CC(=O)N(CCCN)CC(=O)N(CC(N)=O)Cc1ccccc1)Cc1ccccc1)Cc1ccccc1 [Compound 7, Ac(NapNpm)3] (Ac-[Gly(N(CH2)3NH2)][Nphe][Gly(N(CH2)3NH2)][Nphe][Gly(N(CH2)3NH2)][Nphe]-NH2) | 125 µg/mL (≈ 148 µM) | 125 µg/mL (≈ 148 µM) | 250 µg/mL (≈ 297 µM) | >250 µg/mL | >250 µg/mL |  |  |  |  |  |
| CC(=O)N(CCCN)CC(=O)N(CC(=O)N(CCCN)CC(=O)N(CC(=O)N(CCCN)CC(=O)N(CC(=O)N(CCCN)CC(=O)N(CC(N)=O)Cc1ccccc1)Cc1ccccc1)Cc1ccccc1)Cc1ccccc1 [Compound 8, Ac(NapNpm)4] (Ac-[Gly(N(CH2)3NH2)][Nphe][Gly(N(CH2)3NH2)][Nphe][Gly(N(CH2)3NH2)][Nphe][Gly(N(CH2)3NH2)][Nphe]-NH2) | 31.3 µg/mL (≈ 28.3 µM) | 250 µg/mL (≈ 226 µM) | 250 µg/mL (≈ 226 µM) | >250 µg/mL | >250 µg/mL |  |  |  |  |  |
| CC(=O)N(CCCN)CC(=O)N(CC(=O)N(CCCN)CC(=O)N(CC(=O)N(CCCN)CC(=O)N(CC(=O)N(CCCN)CC(=O)N(CC(=O)N(CCCN)CC(=O)N(CC(N)=O)Cc1ccccc1)Cc1ccccc1)Cc1ccccc1)Cc1ccccc1)Cc1ccccc1 [Compound 9, Ac(NapNpm)5] (Ac-[Gly(N(CH2)3NH2)][Nphe][Gly(N(CH2)3NH2)][Nphe][Gly(N(CH2)3NH2)][Nphe][Gly(N(CH2)3NH2)][Nphe][Gly(N(CH2)3NH2)][Nphe]-NH2) | 15.6 µg/mL (≈ 11.4 µM) | 31.3 µg/mL (≈ 22.9 µM) | 62.5 µg/mL (≈ 45.8 µM) | >250 µg/mL | >250 µg/mL |  |  |  |  |  |
| CC(=O)N(CC(=O)N(CCCN)CC(=O)N(CC(=O)N(CCCN)CC(=O)N(CC(=O)N(CC(N)=O)Cc1ccccc1)Cc1ccccc1)Cc1ccccc1)Cc1ccccc1 [Compound 10, Ac(NpmNap)2Npm2] (Ac-[Nphe][Gly(N(CH2)3NH2)][Nphe][Gly(N(CH2)3NH2)][Nphe][Nphe]-NH2) | 31.3 µg/mL (≈ 35.7 µM) | >500 µg/mL | >500 µg/mL | >250 µg/mL | >250 µg/mL |  |  |  |  |  |
| CC(=O)N(CC(=O)N(CCCN)CC(=O)N(CC(=O)N(CC(=O)N1CCC[C@H]1C(=O)N(CC(=O)N(CCCN)CC(=O)N(CC(=O)N(CC(=O)N1CCC[C@H]1C(N)=O)Cc1ccccc1)CC(C)C)C(C)C)Cc1ccccc1)CC(C)C)C(C)C [Compound 11, Ac(NipNapNibNpmPro)2] (Ac-[N(iPr)Gly][Gly(N(CH2)3NH2)][Nleu][Nphe]P[N(iPr)Gly][Gly(N(CH2)3NH2)][Nleu][Nphe]P-NH2) |  |  |  |  |  | >500 µg/mL | >500 µg/mL | >500 µg/mL | >250 µg/mL | >250 µg/mL |
| CC(=O)N(CC(=O)N(CC(=O)N(CCCCNC(=N)N)CC(=O)N(CC(=O)N1CCC[C@H]1C(=O)N(CC(=O)N(CC(=O)N(CCCCNC(=N)N)CC(=O)N(CC(=O)N1CCC[C@H]1C(N)=O)C(C)C)CC(C)C)CC(c1ccccc1)c1ccccc1)C(C)C)CC(C)C)CC(c1ccccc1)c1ccccc1 [Compound 12, Ac(NdpNibNgbNipPro)2] (Ac-[X1][Nleu][NhArg][N(iPr)Gly]P[X1][Nleu][NhArg][N(iPr)Gly]P-NH2) | 500 µg/mL (≈ 335 µM) | 250 µg/mL (≈ 167 µM) | 500 µg/mL (≈ 335 µM) | >250 µg/mL | >250 µg/mL |  |  |  |  |  |
| CC(=O)N(CC(=O)N(CC(=O)N(CCCN)CC(=O)N(CC(=O)N1CCCC1C(=O)N(CC(=O)N(CC(=O)N(CCCN)CC(=O)N(CC(=O)N1CCCC1C(N)=O)C(C)C)CC(C)C)Cc1ccccc1)C(C)C)CC(C)C)Cc1ccccc1 (stereo not drawn) [Compound 13, Ac(NpmNibNapNipPro)2] (Ac-[Nphe][Nleu][Gly(N(CH2)3NH2)][N(iPr)Gly]P[Nphe][Nleu][Gly(N(CH2)3NH2)][N(iPr)Gly]P-NH2; configuration not given here) | >500 µg/mL | >500 µg/mL | >500 µg/mL | >250 µg/mL | >250 µg/mL |  |  |  |  |  |
| CC(=O)N(CCCCN)CC(=O)N(CC(=O)N(CCCCN)CC(=O)N(CC(=O)N(CCCCN)CC(=O)N(CC(N)=O)Cc1ccccc1)Cc1ccccc1)Cc1ccccc1 [Compound 14, Ac(NabNpm)3] (Ac-[Nlys][Nphe][Nlys][Nphe][Nlys][Nphe]-NH2) | >500 µg/mL | >500 µg/mL | >500 µg/mL | >250 µg/mL | >250 µg/mL |  |  |  |  |  |
| CC(=O)N(CCCCNC(=N)N)CC(=O)N(CC(=O)N(CCCCNC(=N)N)CC(=O)N(CC(=O)N(CCCCNC(=N)N)CC(=O)N(CC(=O)N(CCCCNC(=N)N)CC(=O)N(CC(=O)N(CCCCNC(=N)N)CC(=O)N(CC(N)=O)CC(c1ccccc1)c1ccccc1)CC(c1ccccc1)c1ccccc1)CC(c1ccccc1)c1ccccc1)CC(c1ccccc1)c1ccccc1)CC(c1ccccc1)c1ccccc1 [Compound 15, Ac(NgbNdp)5] | 62.5 µg/mL (≈ 29.8 µM) | 31.3 µg/mL (≈ 14.9 µM) | 62.5 µg/mL (≈ 29.8 µM) | >250 µg/mL | >250 µg/mL |  |  |  |  |  |
| CC(=O)N(CC(=O)N(CCCCNC(=N)N)CC(=O)N(CC(=O)N(CCCCNC(=N)N)CC(=O)N(CC(=O)N(CC(N)=O)CC(c1ccccc1)c1ccccc1)CC(c1ccccc1)c1ccccc1)CC(c1ccccc1)c1ccccc1)CC(c1ccccc1)c1ccccc1 [Compound 16, Ac(NdpNgb)2Ndp2] |  |  |  |  |  | >500 µg/mL | >500 µg/mL | 62.5 µg/mL (≈ 46.3 µM) | 250 µg/mL | >250 µg/mL |
| CC(C)CN1CC(=O)N(CCCN)CC(=O)N(C(C)C)CC(=O)N2CCC[C@H]2C(=O)N(Cc2ccccc2)CC(=O)N(CC(C)C)CC(=O)N(CCCN)CC(=O)N(C(C)C)CC(=O)N2CCC[C@H]2C(=O)N(Cc2ccccc2)CC1=O [Compound 29, C(NpmNibNapNipPro)2] (cyclo([Nleu][Gly(N(CH2)3NH2)][N(iPr)Gly]P[Nphe][Nleu][Gly(N(CH2)3NH2)][N(iPr)Gly]P[Nphe])) |  |  |  | >250 µg/mL | >250 µg/mL |  |  |  |  |  |

Reference: US9872495B2, “Peptoid oligomers, pharmaceutical compositions and methods of using the same” (priority 2009, dated 2018)
